Data reported in patent publication US7307166B1, “Oxpurine nucleosides and their congeners, and acyl, derivatives thereof, for improvement of hematopoiesis” (Wellstat Therapeutics Corporation, priority 1987, dated 2007).

How the values were obtained:
[1] = test system: Normal Balb/C female mice; assay: Hematopoiesis in normal mice; type: in vivo, mouse
Description: Normal, otherwise untreated, female Balb/C mice weighing approximately 20 grams each received a total of 4 or 9 0.4 ml intraperitoneal injections (one per day) of either Tween-80 (0.2%) (controls), palmitoylguanosine ([…]), or palmitoyldeoxyinosine ([…]). Twenty-four hours after the 4th or 9th treatment, groups of 5 or 6 animals from each of the 3 groups were bled and then sacrificed by cervical dislocation. Spleens were removed and weighed, and complete blood cell counts performed.
Normal Balb/C female mice weighing approximately 20 grams each were given a daily 0.4 ml i.p. injection of either physiological saline (controls), palmitoylguanosine (2.6 μmoles/mouse), palmitoyldeoxyguanosine (2.6 μmoles/mouse), monopalmitoylguanosine 2′,3′-acyclic dialcohol (2.6 μmoles/mouse), and palmitoyl-8-bromoguanosine (2.6 μmoles/mouse) for 4 days. On the fifth day all 3 animals in each of the 5 groups were bled and then sacrificed by cervical dislocation. Spleens were removed and weighed, and complete blood cell counts performed. Femoral bone marrow from each mouse was collected and a differential cell count performed on marrow smears.

FDCPmix cells = assay: FDCPmix cell proliferation in the presence of IL-3 (MTT assay); type: cell-based
Description: The FDCPmix cell line was used as a suitable in vitro model for predicting the effects of hematopoietic factors on pluripotential stem cells. These cells can be maintained in an undifferentiated state in the presence of IL-3 or undergo multi-lineage development in the presence of specific hematopoietic growth factors.
This level of proliferation (100%) served as the control value. Inhibition of proliferation by test compounds was represented as a percent of control.
FDCPmix cells were plated at a density of 5×10^4 cells per well in 96-well plates (5×10^5/ml) using IMDM medium plus 10% fetal bovine serum. […] Test compounds were added at a decreasing concentrations ranging from 10 micrograms/ml down to 1 nanogram/ml. The test compounds included: 3′,5′-O—N^2-tripalmitoyl-2′-deoxyguanosine, 3′,5′-di-O-palmitoyl-2′-deoxy-guanosine, 3′,5′-O—N^2-trioctanoyl-2′-deoxyguanosine, 3′,5′-di-O-octanoyl-2′-deoxyguanosine, and 3′,5′-o-N^2-trioleyl-2′-deoxy-guanosine.

male CDF8F1 mice = assay: Doxorubicin-induced myelosuppression; type: in vivo, mouse
Description: Doxorubicin (Adriamycin) is a widely-used anticancer agent effective against breast carcinoma, sarcomas, small-cell lung cancer, ovarian cancer, thyroid cancer, Hodgkin's Disease and non-Hodgkins lymphoma. Its clinical application is limited by its cardiac and hematologic toxicities. A study was conducted to assess the effect of N^2 3′,5′-tripalmitoyldeoxyguanosine (PdG) in reducing the hematologic toxicity of doxorubicin. Eighty male CDF8F1 mice were divided into three groups. One group received no treatment and served as basal control animals. Animals in the other two groups were each given a single dose of doxorubicin at a dose of 11 mg/kg by intraperitoneal injection. Beginning 24 hours later, animals in the two groups received three daily doses by intraperitoneal injection of either PdG or vehicle only. Blood samples were obtained by retro-orbital eye bleed just prior to administration of doxorubicin and then 4, 8, 11 and 14 days thereafter. Complete blood cell counts with differential were determined.

female Balb/C mice [2] = assay: Cecal ligation and puncture (CLP) polymicrobial sepsis survival; type: in vivo, mouse; conditions: 25 mg/kg i.p. daily 3 days prior to CLP
Description: N^2,3′,5′-tripalmitoyldeoxyguanosine (PdG) stimulates neutrophil production. Since neutrophils are important in defense against bacteria, PdG was tested for beneficial effects in bacterial sepsis. Bacterial infection as a consequence of the immunocompromising effects of radiotherapy or chemotherapy is an important cause of mortality in cancer patients. The potential utility of PdG was evaluated in the cecal ligation and puncture model (CLP), a model of polymicrobial sepsis in which the cecum of an animal is tied off without otherwise obstructing intestinal flow, and then punctured to allow fecal matter trapped in the cecum to leak into the peritoneal cavity (O'Reilly, et al. Journal of Trauma, 33:679-682). This release causes peritonitis as well as subsequent bacteremia, shock, and mortality. The CLP model is a particularly rigorous challenge because it creates a severe and complex polymicrobial sepsis due to both Gram-negative and Gram-positive bacteria. The CLP model is analogous to a ruptured appendix or punctured intestine in humans.
36 female Balb/C mice were employed. The mice were randomly assigned to one of three groups of twelve mice each. Two groups were treated once per day for three days prior to CLP by i.p. injection with either 25 mg/kg PdG or with vehicle alone. One group underwent the CLP procedure but received no other treatment. Survival was monitored for 60 days after CLP.

female Balb/C mice [3] = assay: Survival after bacterial endotoxin (salmonella typhimurium LPS); type: in vivo, mouse; conditions: 21-day observation; LPS 100 μg (5 mg/kg); 25 mg/kg i.p. daily 3 days prior
Description: In an experiment to test the effect of N^2,3′,5′-tripalmitoyldeoxyguanosine (PdG) on animals challenged by endotoxin, 42 female Balb/C mice were divided into three groups of 14 animals each. Each group was given a single 100 μg dose (5 mg/kg) of salmonella typhimurium LPS. Two of the groups were treated once per day for three days prior to receiving the LPS by intraperitoneal injection with either 25 mg/kg PdG or with vehicle alone. The third group received no pretreatment. Survival of the animals was monitored for 21 days subsequent to the LPS dose.

hematopoietic stem cells = assay: Stem cell mobilization; type: in vivo, mouse
[4] = Day 4 after doxorubicin 11 mg/kg
[5] = Day 8 after doxorubicin 11 mg/kg
[6] = Day 14 after doxorubicin 11 mg/kg

Q: Which results are given for `CCCCCCCCCCCCCCCC(=O)OC[C@H]1O[C@@H](n2cnc3c(=O)[nH]c(N)nc32)[C@H](O)[C@@H]1O`?
A: spleen weights ([1]; Ex 44: day 5, 2.5 Moles/mouse/day i.p., 4 injections): significantly greater; total leukocyte counts ([1]; Ex 44: day 10, 9 injections): significantly elevated; spleen weight ([1]; Ex 56: fifth day, 2.6 μmoles/mouse i.p. daily 4 days): significantly elevated

Q: Which “Cell proliferation (% of Control)” value (FDCPmix cells; Dose 10 ng) does the source give for `CCCCCCCCCCCCCCCC(=O)Nc1nc2c(ncn2[C@H]2C[C@H](OC(=O)CCCCCCCCCCCCCCC)[C@@H](COC(=O)CCCCCCCCCCCCCCC)O2)c(=O)[nH]1` [PdG, 3′,5′-O-N^2-tripalmitoyl-2′-deoxyguanosine] here?
A: 78 ± 1 % of Control

Q: What about the “Cell proliferation (% of Control)” value (FDCPmix cells; Dose 39 ng) of the same compound?
A: 76 ± 2 % of Control

Q: What about the “Cell proliferation (% of Control)” value (FDCPmix cells; Dose 156 ng) of the same compound?
A: 72 ± 3 % of Control

Q: And the “Cell proliferation (% of Control)” value (FDCPmix cells; Dose 625 ng)?
A: 60 ± 2 % of Control

Q: And the “Cell proliferation (% of Control)” value (FDCPmix cells; Dose 2.5 μg)?
A: 51 ± .7 % of Control

Q: And the “Cell proliferation (% of Control)” value (FDCPmix cells; Dose 10 μg, 48 hours, IL-3 25 units/ml)?
A: 51 ± .6 % of Control

Q: And the Lymphocytes (male CDF8F1 mice; [4])?
A: 8.07 ± 1.21 K/μL

Q: And the Neutrophils (male CDF8F1 mice; [4])?
A: 4.35 ± 0.73 K/μL

Q: What about the WBC (male CDF8F1 mice; Day 4 after doxorubicin 11 mg/kg i.p., PdG 3 daily i.p. doses from 24 h after) of the same compound?
A: 13.2 ± 1.59 K/μL

Q: And the Lymphocytes (male CDF8F1 mice; [5])?
A: 1.63 ± 0.13 K/μL

Q: What about the Neutrophils (male CDF8F1 mice; [5]) of the same compound?
A: 2.47 ± 0.28 K/μL

Q: What about the WBC (male CDF8F1 mice; [5]) of the same compound?
A: 4.57 ± 0.35 K/μL

Q: What about the WBC (male CDF8F1 mice; Day 11 after doxorubicin 11 mg/kg) of the same compound?
A: 3.95 ± 0.42 K/μL

Q: And the Lymphocytes (male CDF8F1 mice; [6])?
A: 2.0 ± 0.15 K/μL

Q: And the Neutrophils (male CDF8F1 mice; [6])?
A: 2.3 ± 0.26 K/μL

Q: And the WBC (male CDF8F1 mice; [6])?
A: 5.0 ± 0.39 K/μL

Q: And the mice alive (female Balb/C mice [2]; 72 hours after CLP)?
A: All

Q: What about the “animals surviving / total” value (female Balb/C mice [2]; 60 day observation period) of the same compound?
A: 10/12

Q: And the survival (female Balb/C mice [2]; 60 day observation period)?
A: 83%

Q: And the survival (female Balb/C mice [3])?
A: All

Q: What about the “mobilization of stem cells” value (hematopoietic stem cells; PdG alone 25 mg/kg) of the same compound?
A: can induce the mobilization

Q: What about the “response to cyclophosphamide (stem cell mobilization) with PdG” value (hematopoietic stem cells; PdG with cyclophosphamide) of the same compound?
A: seven to eight-fold greater

Q: And the “mobilizing stem cells in intact and splenectomized mice” value (hematopoietic stem cells; with and without cyclophosphamide co-treatment)?
A: equally effective
